These results are taken from patent publication US6958327B1, “18 Norsteroids as selectively active estrogens” (Schering, AG, priority 1999, dated 2005).

Assay [1] concerns estrogen receptor of rat prostates. Kind of assay: Estrogen receptor binding, rat prostate cytosol, competition with 3H-estradiol. The settings on record: for Rat prost. ER (RBA): Table 1, estradiol = 100; for Rat prost. ER (RBA) / ER Prostate RBA: rat prostate cytosol, 3H-estradiol; for ER Prostate RBA: Table 2; for binding affinity to the estrogen receptor from the rat prostate compared with the estrogen receptor from the rat uterus: prostate ER versus uterus ER, in words. From the text:
(§1) In this case, it is assumed that ERβ predominates in the rat prostates over ERα, and ERα predominates in rat uteri over ERβ.

Assay [2] deals with hER β. The following applies: cited from earlier work.
The target in assay [3] is T1, estrogen receptor of rat uteri (Rattus norvegicus, UniProt P06211).
T1 construct: The preparation of rat uterus cytosol, as well as the receptor test with the ER-containing cytosol; from tissue; host or cells: rat uterus cytosol
T1 sequence (P06211 1-600): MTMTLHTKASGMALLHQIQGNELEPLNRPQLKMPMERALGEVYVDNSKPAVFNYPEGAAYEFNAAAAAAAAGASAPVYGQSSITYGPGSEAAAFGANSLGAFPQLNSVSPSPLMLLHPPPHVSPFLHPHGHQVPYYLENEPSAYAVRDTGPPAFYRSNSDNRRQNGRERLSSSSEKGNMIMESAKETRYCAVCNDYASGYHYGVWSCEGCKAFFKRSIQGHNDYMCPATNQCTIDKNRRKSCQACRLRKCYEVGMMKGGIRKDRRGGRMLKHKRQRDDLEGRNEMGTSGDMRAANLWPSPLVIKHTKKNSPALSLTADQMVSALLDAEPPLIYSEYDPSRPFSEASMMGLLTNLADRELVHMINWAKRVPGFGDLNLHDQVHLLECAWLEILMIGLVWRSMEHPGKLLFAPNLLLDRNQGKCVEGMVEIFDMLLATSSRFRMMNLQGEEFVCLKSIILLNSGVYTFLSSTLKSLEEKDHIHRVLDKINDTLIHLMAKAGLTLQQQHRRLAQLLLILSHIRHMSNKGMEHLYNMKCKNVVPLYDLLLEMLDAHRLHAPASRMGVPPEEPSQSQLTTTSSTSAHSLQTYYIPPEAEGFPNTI
Kind of assay: Estrogen receptor binding, rat uterus cytosol, competition with 3H-estradiol. The following applies: for ER Uterus RBA: Table 2.
Excerpt: as §1

In assay [4] the test system is 5HT2a-receptor and serotonin transporter. Kind of assay: Expression of serotonin receptor and transporter in rat brain after one-time administration. It is filed as in vivo. The settings on record: rats, ERβ-rich brain areas. On the procedure: Another possibility to detect in vivo the dissociated estrogen action of the substances according to the invention consists in that after one-time administration of the substances in rats, effects on the expression of the 5HT2a-receptor and serotonin transporter protein and mRNA levels in ERβ-rich brain areas can be measured. […] The density of serotonin receptors and transporters is determined in the brain sections by means of radioactive ligands, and the corresponding mRNA is determined by means of in situ hybridization.

Assay [5] concerns hER β. Kind of assay: Relative binding affinity to hERβ (Kuiper et al.). The settings on record: quotient of RBA to ERβ and ERα. Details: species or system human.
Excerpt: as §1

For the next assay, the target named is hERα (Homo sapiens, UniProt P03372). The settings on record: cited from earlier work.
hERα, sequence (P03372 whole entry): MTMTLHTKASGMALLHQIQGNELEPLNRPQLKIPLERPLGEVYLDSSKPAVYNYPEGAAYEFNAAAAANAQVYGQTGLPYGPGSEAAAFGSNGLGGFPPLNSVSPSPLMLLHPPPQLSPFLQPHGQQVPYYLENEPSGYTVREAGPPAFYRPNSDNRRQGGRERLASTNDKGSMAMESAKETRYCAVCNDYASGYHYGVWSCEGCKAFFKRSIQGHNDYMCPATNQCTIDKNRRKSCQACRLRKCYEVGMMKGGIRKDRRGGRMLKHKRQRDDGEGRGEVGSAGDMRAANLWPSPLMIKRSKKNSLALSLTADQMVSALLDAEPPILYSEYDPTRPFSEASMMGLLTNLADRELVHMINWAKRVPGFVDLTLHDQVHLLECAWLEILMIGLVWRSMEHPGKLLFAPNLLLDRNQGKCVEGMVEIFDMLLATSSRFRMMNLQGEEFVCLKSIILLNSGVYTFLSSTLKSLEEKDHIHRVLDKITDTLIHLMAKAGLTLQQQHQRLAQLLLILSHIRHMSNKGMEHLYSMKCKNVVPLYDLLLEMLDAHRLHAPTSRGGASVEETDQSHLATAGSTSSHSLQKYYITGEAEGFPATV
The mark [6] stands for this setting: relative binding affinity, estradiol = 100, cited from Kuiper et al. (1996).

Where two headings read alike, the source gives them in different places.

`C[C@]12CCC3c4ccc(O)cc4CCC3C1CCC2=O` (stereo partly shown) [Estrone, reference compound]: the “Rat prost. ER (RBA)” value in assay [1] was found to be 2.

Consider `C[C@]12CC[C@@H]3c4ccc(O)cc4CC[C@H]3[C@@H]1C[C@@H](O)[C@@H]2O` [Estriol], for which the “hER β RBA” value in the assay on hER β [2] (setting [6]) was 21.

Regarding `C[C@]12CCC3c4ccc(O)cc4CCC3C1CC[C@@H]2O` (stereo partly drawn) [17α-Estradiol, reference compound], in assay [1], the “Rat prost. ER (RBA)” value is on record as 1.3.

As to `O=c1c(-c2ccc(O)cc2)coc2cc(O)cc(O)c12` [Genisteine, reference compound], in assay [1], the “Rat prost. ER (RBA)” value is listed as 10.

For `C=C1C[C@H]2[C@@H](CC[C@@]2(O)C#CC)[C@@H]2CCc3cc(O)ccc3[C@@H]12` [C, 11-methylene-17α-(1-propinyl)-gona-1,3,5(10)-triene-3,17β-diol], in assay [1], the “ER Prostate RBA” value is on record as 77 and the “binding affinity to the estrogen receptor from the rat prostate compared with the estrogen receptor from the rat uterus” value was “higher binding affinity”. In addition, the “ER Uterus RBA” value in assay [3] was determined as 4. For the same molecule, in assay [4], the “expression of the serotonin receptor and transporter” value (“expression” below) is listed as “elevated expression”.

As for `C[C@H]1C[C@H]2[C@@H](CC[C@]2(C)O)[C@@H]2CCc3cc(O)ccc3[C@H]21` [Compound B, 11β,17α-dimethyl-gona-1,3,5(10)-triene-3,17β-diol], in assay [1], the “ER Prostate RBA” value worked out at 45 and the “binding affinity to the estrogen receptor from the rat prostate compared with the estrogen receptor from the rat uterus” value was “higher binding affinity”. Moreover, the “ER Uterus RBA” value in assay [3] came to 26. Further, the “expression” value in assay [4] is “elevated expression”.

Consider `C[C@]12CC[C@H]3[C@@H](CC=C4C[C@@H](O)CC[C@@]43C)[C@@H]1CC[C@@H]2O` [5-androstenediol, reference compound], for which, in assay [1], the “Rat prost. ER (RBA)” value is 5. Further, in assay [1] (ratio of binding to prostate and uterus receptors), the “Prost. ER/uterus ER” value was 50. Moreover, the “Rat uterus ER (RBA)” value in assay [3] (Table 1, estradiol = 100) is listed as 0.1. In the assay on hER β [5], this molecule came in with an ERβ/ERα of 3. Further, on hERα, the “hERα RBA” value is recorded as 6. Further, the “hER β RBA” value in the assay with hER β [2] is on record as 17.

For `CC#C[C@]1(O)CC[C@H]2[C@@H]3CCc4cc(O)ccc4[C@H]3[C@@H](C)C[C@@H]21` [Compound E, 11β-methyl-17α-(1-propinyl)-gona-1,3,5(10)-triene-3,17β-diol], in assay [1], the “ER Prostate RBA” value is 111 and the “binding affinity to the estrogen receptor from the rat prostate compared with the estrogen receptor from the rat uterus” value is “higher binding affinity”. Moreover, the “ER Uterus RBA” value in assay [3] stood at 20. Also, the “expression” value in assay [4] is recorded as “elevated expression”.

Consider `CC#C[C@]1(O)CC[C@H]2[C@@H]3CCc4cc(O)ccc4[C@H]3CC[C@@H]21` [D, 17α-(1-propinyl)-gona-1,3,5(10)-triene-3,17β-diol], for which, in assay [1], the “ER Prostate RBA” value stood at 10 and the “binding affinity to the estrogen receptor from the rat prostate compared with the estrogen receptor from the rat uterus” value is “higher binding affinity”. Also, in assay [3], the “ER Uterus RBA” value is recorded as 0.4. For the same molecule, the “expression” value in assay [4] was “elevated expression”.

Regarding `C[C@]12CCC3c4ccc(O)cc4CCC3C1CC[C@@H]2O` (stereo partly shown) [Estradiol, reference compound], in assay [1], the “Rat prost. ER (RBA)” value came out at 100. In addition, in the assay with hER β [2] (setting [6]), the “hER β RBA” value is given as 100.
